Source: patent publication US12103969B2, “Anti-Siglec antibody, pharmaceutical composition comprising the same, and uses thereof” (Academia Sinica, priority 2018, dated 2024)
Read-outs that look alike come from different tables or passages of the source.

What was measured:
hHBV [1] = assay: Bio-layer interferometry: immobilized Fc-lectin and hHBV; assay type: binding, hepatitis B virus
Source text: (§1) HBV was purified from blood samples of chronic hepatitis B (CHB) patients and HBV-transgenic mice, respectively. The protocol for HBV was purified by conventional method. HBV viral load was determinate by RT-PCR according to a standard HBV plasmid. HBsAg level was quantified by the HBsAg ELISA kit.
(§2) Sialidase S and sialidase C were used to remove sialoglycan from HBV or sialoglycans, respectively. Sialidase S releases only α(2-3)-linked Neu5Ac, while Sialidase C release both α(2-3) and α(2-6)-linked Neu5Ac. The sialidase-treated substrates were used for HBV-Siglec-3 binding assay and competition assay.
(§3) The interaction between human Siglec.Fc fusion protein and HBV was determined by the Bio-layer interferometry. In brief, the biosensor was immobilized with the Siglec.Fc fusion protein, and the binding between the Siglec.Fc and HBV was performed with running buffer (10 mM Tris HCl, 150 mM NaCl, 2 mM CaCl2, 2 mM MgCl2, pH 7.4) at room temperature. The valence between HBV and human Siglec-3 was determined, which correlates the strength of multivalent association with that of monovalent association as shown in the following: • KA, surf=F (S×10^−2)^n−1×(KA, mono)^n, where KA, surf is thereciprocal of KD (HBV and Siglec-3), KA, mono is the reciprocal of KD (Biantennary a2-6 linked sialylglycopeptide and Siglec-3); n is the number of valency number; F is the statistic factor in the system and S is equal to 40(Å), which is estimated according to crystal structure of Siglec-3 published on RCSB protein data bank (Number: 5J0B). Three individual BLI results were used to calculate out the n (number of valency). Generation and Characterization of Anti-Siglec mAbs and Selection of Antagonistic Antibody

hHBV [2] = assay: Immunoprecipitation of hHBV by Siglec ECD.Fc fusion proteins; assay type: binding, hepatitis B virus; conditions: Western blot with anti-HBs
Protocol: HBV ([…]) was incubated with recombinant Siglec-3/-7/-9 ECD.Fc fusion proteins, respectively, for 16 hours at 4° C., followed by incubation with Sepharose-conjugated Protein A beads for immunoprecipitation. The samples were fractionated on 12% SDS-PAGE before blotting to PVDF membrane and incubated in blocking buffer (0.05% Tween 20 in TBS containing 5% BSA) at 4° C. overnight. Blots were incubated with […] polyclonal goat-anti-HBs Ab for 1 hour at room temperature, followed by incubation with Streptavidin-HRP (1:10000 dilution) for another 1 hour at room temperature, and were visualized by ECL.

mHBV = assay: Bio-layer interferometry: immobilized Fc-lectin and mHBV; assay type: binding, hepatitis B virus; conditions: BLI, same condition as hHBV
Protocol: as §1, §3

Siglec-3.Fc = target: T1, Siglec-3.Fc (Homo sapiens, UniProt P20138); assay: Bio-layer interferometry: Siglec-3.Fc and Neu5Ac(α2-6)GalGlcNAc glycans; assay type: binding
T1 construct: human Siglec-3/-7 extracellular domain (ECD); made in house; host or cells: FreeStyle 293 Expression System (Invitrogen)
T1 sequence (P20138 18-259 limits assumed): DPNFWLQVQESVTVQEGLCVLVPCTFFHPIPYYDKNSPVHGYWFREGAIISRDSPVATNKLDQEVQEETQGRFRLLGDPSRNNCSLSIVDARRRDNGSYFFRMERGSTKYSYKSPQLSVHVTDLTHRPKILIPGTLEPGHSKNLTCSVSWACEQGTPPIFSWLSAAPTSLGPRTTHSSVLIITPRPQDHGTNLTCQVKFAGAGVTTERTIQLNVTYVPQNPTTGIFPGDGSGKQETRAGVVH
Protocol: as §3

[3] = target: T2, hHBV and Siglec-3 interaction (Homo sapiens, UniProt P20138); assay: Competition assay of hHBV and Siglec-3 interaction by sialoglycan; assay type: binding
T2 construct: human Siglec-3/-7 extracellular domain (ECD); made in house; host or cells: FreeStyle 293 Expression System (Invitrogen); HBsAg/HBV purified from CHB patients' blood
T2 sequence (P20138 18-259 limits assumed): as above
Protocol: as §2
Siglec ECD.Fc fusion proteins (5 μg) were coated on microtitre plates, followed by addition of HBsAg (100 ng) in the presence various concentrations of following glycans: Neu5Ac(α2-6)-Gal-GlcNAc, Neu5Ac(α2-3)-Gal-GlcNAc, and Gal-GlcNAc at 4° C. for 12 hours with Protein free blocking buffer. The sialidase-treated and un-treated sialyglycans were used for competition assay.

[4] = untreated glycan, various concentrations

In the case of “Siglec-9: recombinant Siglec-9 ECD.Fc fusion protein”, the “binding to hHBV” value (hHBV [1]; hHBV, BLI, same condition as Siglec-3) is reported as “did not bind” and the “pull down of hHBV HBsAg (immunoprecipitation)” value (hHBV [2]) is reported as “cannot pull down”.

With “Siglec-3: recombinant human Siglec-3 extracellular domain (ECD).Fc fusion protein” the “Ka” value (hHBV [1]; hHBV Sialidase S treated, cell wraps: value is the mantissa, factor × 10^5 printed in the lines below) was 7.11 M⁻¹ s⁻¹, the “Kd” value (hHBV [1]; hHBV Sialidase S treated, cell wraps: value is the mantissa, factor × 10^−4 printed in the lines below) was 2.73 s⁻¹ and the “Ka” value (hHBV [1]; hHBV Untreat, cell wraps: value is the mantissa, factor × 10^6 printed in the lines below) was 1.18 M⁻¹ s⁻¹. For the same substance, the “Kd” value (hHBV [1]; hHBV Untreat, cell wraps: value is the mantissa, factor × 10^−4 printed in the lines below) was 6.97 s⁻¹, the Kd (hHBV [1]; hHBV virions, full value, unit from Table 2, read-out: KD) was 0.000115 µM and the “Ka” value (hHBV [1]; hHBV, cell wraps: value is the mantissa, factor × 10^6 printed in the line below) was 3.11 M⁻¹ s⁻¹. For the same substance, the “Kd” value (hHBV [1]; hHBV, cell wraps: value is the mantissa, factor × 10^−4 printed in the line below) was 3.58 s⁻¹, the “binding between Siglec-3 and hHBV” value (hHBV [1]; α2-6 linked Neu5Ac removed from hHBV by sialidase C) was “abolished the binding” and the “binding to mHBV virions” value (mHBV) was “did not bind”. The “pull down of hHBV HBsAg (immunoprecipitation)” value (hHBV [2]) was “mainly pulled down glycosylated small HBsAg(h)”.

Neu5Ac(α2-6)GalGlcNAc was tested, and the “Ka” value (Siglec-3.Fc; immobilized Siglec-3, cell wraps: value is the mantissa, factor × 10^0 printed in the lines below) was 5.44 M⁻¹ s⁻¹, the “Kd” value (Siglec-3.Fc; immobilized Siglec-3, cell wraps: value is the mantissa, factor × 10^−3 printed in the lines below) was 6.02 s⁻¹ and the Kd (Siglec-3.Fc; recombinant Siglec-3.Fc (dimeric), full value, unit from Table 1, read-out: equilibrium dissociation constant (KD)) was 1590 µM. For the same substance, the “inhibition of Siglec-3-HBV interaction” value ([3]; Sialidase C-treated glycan) was “lost its inhibitory effect” and the “inhibition of Siglec-3-HBV interaction” value [3, 4] was “inhibited Siglec-3-HBV interaction in a dose-dependent manner”.

In the case of Neu5Ac(α2-3)GalGlcNAc, the “inhibition of Siglec-3-HBV interaction” value [3, 4] is reported as “did not inhibit Siglec-3-HBV interaction”.

In the case of GalGlcNAc, the “inhibition of Siglec-3-HBV interaction” value [3, 4] is reported as “did not inhibit Siglec-3-HBV interaction”.
